Source: patent publication US6737383B1, “Herbicidal oxadiazolidines” (priority 1999, dated 2004)

Columns and labels:
purple nutsedge = test: Test B pre/postemergence purple nutsedge; type: in vivo, Cyperus rotundus
Procedure, shortened: (§1)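 Test chemicals in a non-phytotoxic solvent mixture with surfactant were sprayed preemergence onto planted seeds and postemergence onto plants 2 to 18 cm tall (1- to 4-leaf stage). After twelve to sixteen days in a greenhouse, injury was visually rated against untreated controls from 0 (no effect) to 10 (complete control).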

velvetleaf = test: Test B pre/postemergence velvetleaf; type: in vivo, Abutilon theophrasti; settings: for Plant response rating, Velvetleaf: Postemergence
Procedure, shortened: as §1

blackgrass = test: Test B pre/postemergence blackgrass; type: in vivo, Alopecurus myosuroides
Procedure, shortened: as §1

crabgrass = test: Test B pre/postemergence crabgrass; type: in vivo, Digitaria sanguinalis
Procedure, shortened: as §1

cocklebur = test: Test B pre/postemergence cocklebur; type: in vivo, Xanthium strumarium
Procedure, shortened: as §1

rape = test: Test B pre/postemergence rape; type: in vivo, Brassica napus
Procedure, shortened: as §1

wild oat = test: Test B pre/postemergence wild oat; type: in vivo, Avena fatua; settings: for Plant response rating, Wild oats: Postemergence
Procedure, shortened: as §1

corn = test: Test B pre/postemergence corn; type: in vivo, Zea mays
Procedure, shortened: as §1

sugar beet = test: Test B pre/postemergence sugar beet; type: in vivo, Beta vulgaris; settings: for Plant response rating, Sugarbeets: Postemergence
Procedure, shortened: as §1

soybean = test: Test B pre/postemergence soybean; type: in vivo, Glycine max; settings: for Plant response rating, Soybean: Postemergence
Procedure, shortened: as §1

bedstraw = test: Test B pre/postemergence bedstraw; type: in vivo, Galium aparine; settings: for Plant response rating, Bedstraw: Postemergence
Procedure, shortened: as §1

giant foxtail = test: Test B pre/postemergence giant foxtail; type: in vivo, Setaria faberii
Procedure, shortened: as §1

morningglory = test: Test B pre/postemergence morningglory; type: in vivo, Ipomoea hederacea
Procedure, shortened: as §1

pigweed = test: Test B pre/postemergence pigweed; type: in vivo, Amaranthus retroflexus; settings: for Plant response rating, Redroot pigweed: Postemergence
Procedure, shortened: as §1

wheat = test: Test B pre/postemergence wheat; type: in vivo, Triticum aestivum; settings: for Plant response rating, Wheat: Postemergence
Procedure, shortened: as §1

surinam grass = test: Test B pre/postemergence surinam grass; type: in vivo, Brachiaria decumbens
Procedure, shortened: as §1

[1] = Postemergence, Rate 62 g/ha, scale of 0 to 10, 0 is no effect, 10 is complete control
[2] = Postemergence, Rate 125 g/ha, scale 0 to 10, 0 is no effect, 10 is complete control
[3] = Preemergence, Rate 62 g/ha, scale 0 to 10 (0 no effect, 10 complete control)
[4] = Preemergence, Rate 125 g/ha, scale 0 to 10, 0 is no effect, 10 is complete control
[5] = Preemergence, Rate 500 g/ha, scale of 0 to 10 where 0 is no effect and 10 is complete control
[6] = Rate 250 g/ha, Postemergence, scale of 0 to 10 where 0 is no effect and 10 is complete control
[7] = Rate 500 g/ha, scale of 0 to 10 where 0 is no effect and 10 is complete control
[8] = Rate 250 g/ha, scale of 0 to 10 where 0 is no effect and 10 is complete control
[9] = Postemergence, Rate 500 g/ha, scale of 0 to 10 where 0 is no effect and 10 is complete control

For `CC(=O)C(C)n1c(=O)on(C(=O)N(c2ccccc2)C(C)C)c1=O` (centres unmarked) [Compound 576], the “Nutsedge plant response rating” value (purple nutsedge; [1]) was 0, the “Nutsedge plant response rating” value (purple nutsedge; [2]) was 0 and the “Nutsedge plant response rating” value (purple nutsedge; [3]) was 0. The “Nutsedge plant response rating” value (purple nutsedge; [4]) was 0, the “Nutsedge plant response rating (0 to 10 scale)” value (purple nutsedge; Preemergence, Rate 250 g/ha) was 0 and the “Nutsedge plant response rating” value (purple nutsedge; [5]) was 8. For the same compound, the “Plant response rating, Nutsedge” value (purple nutsedge; [6]) was 0, the “Plant response rating, Velvetleaf” value (velvetleaf; [7]) was 0 and the “Velvetleaf plant response rating” value (velvetleaf; [3]) was 0. The “Velvetleaf plant response rating” value (velvetleaf; [4]) was 0, the “Velvetleaf plant response rating (0 to 10 scale)” value (velvetleaf; Preemergence, Rate 250 g/ha) was 0 and the “Velvetleaf plant response rating” value (velvetleaf; [5]) was 3. The “Plant response rating, Velvetleaf” value (velvetleaf; [8]) was 0, the “Blackgrass plant response rating” value (blackgrass; [1]) was 0 and the “Blackgrass plant response rating” value (blackgrass; [2]) was 0. For the same compound, the “Plant response rating, Blackgrass” value (blackgrass; [9]) was 7, the “Blackgrass plant response rating” value (blackgrass; [3]) was 0 and the “Blackgrass plant response rating” value (blackgrass; [4]) was 3. For the same compound, the “Blackgrass plant response rating (0 to 10 scale)” value (blackgrass; Preemergence, Rate 250 g/ha) was 6, the “Blackgrass plant response rating” value (blackgrass; [5]) was 9 and the “Plant response rating, Blackgrass” value (blackgrass; [6]) was 2. The “Crabgrass plant response rating” value (crabgrass; [1]) was 2, the “Crabgrass plant response rating” value (crabgrass; [2]) was 3 and the “Plant response rating, Crabgrass” value (crabgrass; [9]) was 9. For the same compound, the “Crabgrass plant response rating” value (crabgrass; [3]) was 0, the “Crabgrass plant response rating” value (crabgrass; [4]) was 4 and the “Crabgrass plant response rating (0 to 10 scale)” value (crabgrass; Preemergence, Rate 250 g/ha) was 9. The “Crabgrass plant response rating” value (crabgrass; [5]) was 9, the “Plant response rating, Crabgrass” value (crabgrass; [6]) was 9 and the “Cocklebur plant response rating” value (cocklebur; [1]) was 0. The “Cocklebur plant response rating” value (cocklebur; [2]) was 0, the “Plant response rating, Cocklebur” value (cocklebur; [9]) was 0 and the “Cocklebur plant response rating” value (cocklebur; [3]) was 0. For the same compound, the “Cocklebur plant response rating” value (cocklebur; [4]) was 0, the “Cocklebur plant response rating (0 to 10 scale)” value (cocklebur; Preemergence, Rate 250 g/ha) was 0 and the “Cocklebur plant response rating” value (cocklebur; [5]) was 0. For the same compound, the “Plant response rating, Cocklebur” value (cocklebur; [6]) was 0, the “Rape plant response rating” value (rape; [1]) was 0 and the “Rape plant response rating” value (rape; [2]) was 0. The “Plant response rating, Rape” value (rape; [9]) was 0, the “Rape plant response rating” value (rape; [3]) was 0 and the “Rape plant response rating” value (rape; [4]) was 0. The “Rape plant response rating (0 to 10 scale)” value (rape; Preemergence, Rate 250 g/ha) was 2, the “Rape plant response rating” value (rape; [5]) was 7 and the “Plant response rating, Rape” value (rape; [6]) was 0. The “Plant response rating, Wild oats” value (wild oat; [7]) was 0, the “Wild oats plant response rating” value (wild oat; [3]) was 0 and the “Wild oats plant response rating” value (wild oat; [4]) was 0. For the same compound, the “Wild oats plant response rating (0 to 10 scale)” value (wild oat; Preemergence, Rate 250 g/ha) was 3, the “Wild oats plant response rating” value (wild oat; [5]) was 8 and the “Plant response rating, Wild oats” value (wild oat; [8]) was 0. The “Corn plant response rating” value (corn; [1]) was 0, the “Corn plant response rating” value (corn; [2]) was 0 and the “Plant response rating, Corn” value (corn; [9]) was 4. For the same compound, the “Corn plant response rating” value (corn; [3]) was 0, the “Corn plant response rating” value (corn; [4]) was 0 and the “Corn plant response rating (0 to 10 scale)” value (corn; Preemergence, Rate 250 g/ha) was 0. For the same compound, the “Corn plant response rating” value (corn; [5]) was 2, the “Plant response rating, Corn” value (corn; [6]) was 2 and the “Plant response rating, Sugarbeets” value (sugar beet; [7]) was 0. The “Sugarbeets plant response rating” value (sugar beet; [3]) was 0, the “Sugarbeets plant response rating” value (sugar beet; [4]) was 0 and the “Sugarbeets plant response rating (0 to 10 scale)” value (sugar beet; Preemergence, Rate 250 g/ha) was 4. For the same compound, the “Sugarbeets plant response rating” value (sugar beet; [5]) was 6, the “Plant response rating, Sugarbeets” value (sugar beet; [8]) was 0 and the “Plant response rating, Soybean” value (soybean; [7]) was 4. The “Soybean plant response rating” value (soybean; [3]) was 0, the “Soybean plant response rating” value (soybean; [4]) was 0 and the “Soybean plant response rating (0 to 10 scale)” value (soybean; Preemergence, Rate 250 g/ha) was 0. For the same compound, the “Soybean plant response rating” value (soybean; [5]) was 0, the “Plant response rating, Soybean” value (soybean; [8]) was 3 and the “Plant response rating, Bedstraw” value (bedstraw; [7]) was 9. For the same compound, the “Bedstraw plant response rating” value (bedstraw; [3]) was 0, the “Bedstraw plant response rating” value (bedstraw; [4]) was 0 and the “Bedstraw plant response rating (0 to 10 scale)” value (bedstraw; Preemergence, Rate 250 g/ha) was 0. The “Bedstraw plant response rating” value (bedstraw; [5]) was 0, the “Plant response rating, Bedstraw” value (bedstraw; [8]) was 5 and the “Giant foxtail plant response rating” value (giant foxtail; [1]) was 2. The “Giant foxtail plant response rating” value (giant foxtail; [2]) was 3, the “Plant response rating, Giant foxtail” value (giant foxtail; [9]) was 8 and the “Giant foxtail plant response rating” value (giant foxtail; [3]) was 2. For the same compound, the “Giant foxtail plant response rating” value (giant foxtail; [4]) was 4, the “Giant foxtail plant response rating (0 to 10 scale)” value (giant foxtail; Preemergence, Rate 250 g/ha) was 9 and the “Giant foxtail plant response rating” value (giant foxtail; [5]) was 9. For the same compound, the “Plant response rating, Giant foxtail” value (giant foxtail; [6]) was 7, the “Morningglory plant response rating” value (morningglory; [1]) was 2 and the “Morningglory plant response rating” value (morningglory; [2]) was 2. The “Plant response rating, Morningglory” value (morningglory; [9]) was 4, the “Morningglory plant response rating” value (morningglory; [3]) was 0 and the “Morningglory plant response rating” value (morningglory; [4]) was 0. The “Morningglory plant response rating (0 to 10 scale)” value (morningglory; Preemergence, Rate 250 g/ha) was 0, the “Morningglory plant response rating” value (morningglory; [5]) was 0 and the “Plant response rating, Morningglory” value (morningglory; [6]) was 4. For the same compound, the “Plant response rating, Redroot pigweed” value (pigweed; [7]) was 4, the “Redroot pigweed plant response rating” value (pigweed; [3]) was 0 and the “Redroot pigweed plant response rating” value (pigweed; [4]) was 9. For the same compound, the “Redroot pigweed plant response rating (0 to 10 scale)” value (pigweed; Preemergence, Rate 250 g/ha) was 10, the “Redroot pigweed plant response rating” value (pigweed; [5]) was 10 and the “Plant response rating, Redroot pigweed” value (pigweed; [8]) was 0. The “Plant response rating, Wheat” value (wheat; [7]) was 0, the “Wheat plant response rating” value (wheat; [3]) was 0 and the “Wheat plant response rating” value (wheat; [4]) was 6. The “Wheat plant response rating (0 to 10 scale)” value (wheat; Preemergence, Rate 250 g/ha) was 8, the “Wheat plant response rating” value (wheat; [5]) was 8 and the “Plant response rating, Wheat” value (wheat; [8]) was 0. The “B. signalgrass plant response rating” value (surinam grass; [1]) was 0, the “B. signalgrass plant response rating” value (surinam grass; [2]) was 0 and the “Plant response rating, B. signalgrass” value (surinam grass; [9]) was 2. For the same compound, the “B. signalgrass plant response rating” value (surinam grass; [3]) was 0, the “B. signalgrass plant response rating” value (surinam grass; [4]) was 3 and the “B. signalgrass plant response rating (0 to 10 scale, 0 is no effect, 10 is complete control)” value (surinam grass; Preemergence, Rate 250 g/ha) was 6. The “B. signalgrass plant response rating” value (surinam grass; [5]) was 9 and the “Plant response rating, B. signalgrass” value (surinam grass; [6]) was 0.
